Data as given in patent US8999974B2, “Acyl piperazine derivatives as TTX-S blockers” (Raqualia Pharma Inc., priority 2010, dated 2015).

Target: T1, human NaV1.3 (Homo sapiens, UniProt Q9NY46)
T1 construct: expressed in transfected cells; host or cells: HEK293
Test: FRET assay (EFS, FDSS) on HEK293 cells expressing human NaV1.3 channels
Format: cell-based
Settings: FRET assay, HEK293 cells expressing human NaV1.3; read-out: IC50 against Nav1.3
Method: This screen was used to determine the effects of compounds on human NaV1.3, human Nav1.7, and human Nav1.5 channels, utilising electrical field stimulation (EFS) system in 96-well plate format on FDSS (Hamamatsu Photonics) platform. The change of membrane potential was monitored with FRET dye pair, oxonol (DiSBAC2(3)) and coumarin (CC2-DMPE).
Each HEK293 cells expressing human NaV1.3 channels and HEK293 cells expressing human NaV1.5 channels were grown in T225 flasks, in a 5% CO2 humidified incubator to about 80% confluence. Media composition consisted of Dulbecco's Modified Eagle Medium (high glucose), 10% FCS, 100 units/ml Penicillin, 100 microgram/ml Streptomycin and 500 microgram/ml Geneticine.
Protocol: • Seeded each cell lines (1×10^5 cells/well) into poly-D-lysine coated 96-well plates prior to experimentation. • Incubated at 37° C. in 5% CO2 for 24 hours. • Washed each well with assay buffer (140 mM NaCl, 4.5 mM KCl, 10 mM D-Glucose, 2 mM CaCl2, 1 mM MgCl2, 10 mM HEPES, pH 7.4 adjusted with NaOH) twice. • Added 1st loading solution containing 10 microM CC2-DMPE and 0.06% Pluronic F-127 in assay buffer. • Incubated the plate at room temperature in dark for 1 hour. • Removed 1st loading solution and added 2nd loading solution containing 15 microM DiSBAC2(3), 0.555 mM VABSC-1 and 0.004% Pluronic F-127 in assay buffer. • Placed the plate under the dark at room temperature for 25 minutes. • Added compound solutions into the assay plate. • Set the assay plate in FDSS and placed an EFS device on the plate. • Measured EFS-induced fluorescent response by FDSS.
The data were analyzed and reported as normalized ratios of intensities measured at […]. The process of calculating these ratios was performed as follows:
[formula] This analysis was performed using a computerized specific program designed for FDSS generated data. Fluorescence ratio values were plotted using XLfit to determine an IC50 value for each compound.

T1 sequence (Q9NY46 whole entry): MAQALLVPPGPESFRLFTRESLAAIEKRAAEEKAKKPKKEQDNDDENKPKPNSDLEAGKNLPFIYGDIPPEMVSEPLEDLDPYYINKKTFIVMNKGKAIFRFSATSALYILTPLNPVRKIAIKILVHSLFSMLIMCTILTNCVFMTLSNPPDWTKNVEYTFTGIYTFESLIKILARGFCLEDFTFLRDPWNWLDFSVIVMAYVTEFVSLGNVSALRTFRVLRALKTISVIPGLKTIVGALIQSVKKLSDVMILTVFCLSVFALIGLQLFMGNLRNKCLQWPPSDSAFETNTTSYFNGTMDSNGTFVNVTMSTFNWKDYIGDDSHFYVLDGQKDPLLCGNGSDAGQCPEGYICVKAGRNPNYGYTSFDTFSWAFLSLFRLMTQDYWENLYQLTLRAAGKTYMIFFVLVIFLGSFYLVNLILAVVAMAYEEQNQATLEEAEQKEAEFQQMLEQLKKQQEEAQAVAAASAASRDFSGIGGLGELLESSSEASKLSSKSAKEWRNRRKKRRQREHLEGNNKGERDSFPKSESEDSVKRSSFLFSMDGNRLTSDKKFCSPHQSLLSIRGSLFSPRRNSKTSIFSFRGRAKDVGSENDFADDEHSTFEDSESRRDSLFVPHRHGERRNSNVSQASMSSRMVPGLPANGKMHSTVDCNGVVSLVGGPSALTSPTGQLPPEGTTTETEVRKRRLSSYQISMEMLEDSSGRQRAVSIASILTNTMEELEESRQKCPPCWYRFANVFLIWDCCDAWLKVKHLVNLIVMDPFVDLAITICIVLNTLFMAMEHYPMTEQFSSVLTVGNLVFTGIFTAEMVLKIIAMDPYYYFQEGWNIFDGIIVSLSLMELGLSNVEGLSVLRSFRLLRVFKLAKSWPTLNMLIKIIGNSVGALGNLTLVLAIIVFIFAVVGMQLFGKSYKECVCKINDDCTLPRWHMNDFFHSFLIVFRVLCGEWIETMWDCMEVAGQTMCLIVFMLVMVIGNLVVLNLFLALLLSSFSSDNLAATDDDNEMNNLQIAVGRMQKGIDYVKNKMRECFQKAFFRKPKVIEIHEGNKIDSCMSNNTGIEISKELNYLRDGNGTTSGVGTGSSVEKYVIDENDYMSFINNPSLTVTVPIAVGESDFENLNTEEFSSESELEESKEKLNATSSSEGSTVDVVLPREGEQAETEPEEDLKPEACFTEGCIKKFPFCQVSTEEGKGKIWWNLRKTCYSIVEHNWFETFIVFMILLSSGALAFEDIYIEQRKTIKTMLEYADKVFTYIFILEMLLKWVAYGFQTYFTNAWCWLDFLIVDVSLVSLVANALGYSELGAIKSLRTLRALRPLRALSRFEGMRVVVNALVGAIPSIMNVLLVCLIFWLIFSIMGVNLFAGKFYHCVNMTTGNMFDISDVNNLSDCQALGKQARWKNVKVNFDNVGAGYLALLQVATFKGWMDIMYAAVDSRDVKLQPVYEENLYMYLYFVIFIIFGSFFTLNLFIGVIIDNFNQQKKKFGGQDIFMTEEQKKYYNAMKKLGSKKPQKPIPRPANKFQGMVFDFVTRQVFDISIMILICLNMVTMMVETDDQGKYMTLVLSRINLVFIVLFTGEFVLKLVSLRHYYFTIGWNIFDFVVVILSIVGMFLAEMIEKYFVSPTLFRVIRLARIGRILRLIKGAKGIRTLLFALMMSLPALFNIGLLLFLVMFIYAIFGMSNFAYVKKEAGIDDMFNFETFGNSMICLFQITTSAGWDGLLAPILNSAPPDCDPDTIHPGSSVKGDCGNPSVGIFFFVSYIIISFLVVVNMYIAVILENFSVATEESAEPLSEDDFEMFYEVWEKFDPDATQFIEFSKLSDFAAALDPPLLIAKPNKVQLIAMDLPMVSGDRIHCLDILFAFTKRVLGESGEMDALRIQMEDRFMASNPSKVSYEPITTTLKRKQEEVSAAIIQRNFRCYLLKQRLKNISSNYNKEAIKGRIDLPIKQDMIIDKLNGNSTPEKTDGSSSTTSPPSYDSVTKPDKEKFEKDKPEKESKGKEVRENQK

| SMILES | IC50 [µM] |
| --- | --- |
| CC(C)COc1cc(N2CCN(C(=O)C(O)Cc3ccccc3)CC2)ncn1 (stereo in doubt) [Example 5, (R)-2-hydroxy-1-(4-(6-isobutoxypyrimidin-4-yl)piperazin-1-yl)-3-phenylpropan-1-one] | < 3 |
| CC(C)COc1cc(N2CCN(C(=O)C(NC(=O)OC(C)(C)C)c3ccccc3)CC2)ncn1 (stereo in doubt) [Example 11, (R)-tert-butyl (2-(4-(6-isobutoxypyrimidin-4-yl)piperazin-1-yl)-2-oxo-1-phenylethyl)carbamate] | < 3 |
| Cc1ccc(C(=O)N2CCN(c3cc(OC4CCCC4)ncn3)CC2)cc1F [Example 7] | < 3 |
| CC(C)COc1cc(N2CCN(C(=O)c3cccc4[nH]ccc34)CC2)ncn1 [Example 9, (1H-indol-4-yl)(4-(6-isobutoxypyrimidin-4-yl)piperazin-1-yl)methanone] | < 3 |
| CC(C)COc1cc(N2CCN(C(=O)c3cc(C(F)(F)F)nn3C)CC2)ncn1 [Example 14, (4-(6-isobutoxypyrimidin-4-yl)piperazin-1-yl)(1-methyl-3-(trifluoromethyl)-1H-pyrazol-5-yl)methanone] | < 3 |
| Cc1ccc(C(=O)N2CCN(c3cc(OC4CCC4)ncn3)CC2)cc1F [Example 16] | < 3 |
| CC(C)COc1cc(N2CCN(C(=O)c3ccc4ccccc4n3)CC2)ncn1 [Example 18, (4-(6-isobutoxypyrimidin-4-yl)piperazin-1-yl)(quinolin-2-yl)methanone] | < 3 |
| CC(C)COc1cc(N2CCN(C(=O)c3nc4ccccc4n3C)CC2)ncn1 [Example 23, (4-(6-isobutoxypyrimidin-4-yl)piperazin-1-yl)(1-methyl-1H-benzo[d]imidazol-2-yl)methanone] | < 3 |
| Cn1nc(C(=O)N2CCN(c3cc(OCC(F)(F)F)ncn3)CC2)cc1C(F)(F)F [Example 29, (1-methyl-5-(trifluoromethyl)-1H-pyrazol-3-yl)(4-(6-(2,2,2-trifluoroethoxy)pyrimidin-4-yl)piperazin-1-yl)methanone] | < 3 |
| Cn1nc(C(=O)N2CCN(c3cc(OCC(F)(F)F)ncn3)CC2)c2ccccc21 [Example 30, (1-methyl-1H-indazol-3-yl)(4-(6-(2,2,2-trifluoroethoxy)pyrimidin-4-yl)piperazin-1-yl)methanone] | < 3 |
| CC(C)COc1cc(N2CCN(C(=O)c3cnc4ccccc4n3)CC2)ncn1 [Example 34, (4-(6-isobutoxypyrimidin-4-yl)piperazin-1-yl)(quinoxalin-2-yl)methanone] | < 3 |
| Cn1nc(C(=O)N2CCN(c3cc(OC4CCC4)ncn3)CC2)c2ccccc21 [Example 38, (4-(6-cyclobutoxypyrimidin-4-yl)piperazin-1-yl)(1-methyl-1H-indazol-3-yl)methanone] | < 3 |
| CC(C)COc1cc(N2CCN(C(=O)C(C)Oc3ccc(F)cc3)CC2)ncn1 (stereo not shown) [Example 48, 2-(4-fluorophenoxy)-1-(4-(6-isobutoxypyrimidin-4-yl)piperazin-1-yl)propan-1-one] | < 3 |
| CC(C)COc1cc(N2CCN(C(=O)c3cccc(N4CCCC4)n3)CC2)ncn1 [Example 52, (4-(6-isobutoxypyrimidin-4-yl)piperazin-1-yl)(6-(pyrrolidin-1-yl)pyridin-2-yl)methanone] | < 3 |
| CC(C)COc1cc(N2CCN(C(=O)OCc3ccccc3)CC2)ncn1 [Example 53, benzyl 4-(6-isobutoxypyrimidin-4-yl)piperazine-1-carboxylate] | < 3 |
| CC(C)COc1cc(N2CCN(C(=O)CN3C(=O)COc4ccccc43)CC2)ncn1 [Example 57, 4-(2-(4-(6-isobutoxypyrimidin-4-yl)piperazin-1-yl)-2-oxoethyl)-2H-benzo[b][1,4]oxazin-3(4H)-one] | < 3 |
| CC(C)COc1cc(N2CCN(C(=O)Cc3noc4ccccc34)CC2)ncn1 [Example 58, 2-(benzo[d]isoxazol-3-yl)-1-(4-(6-isobutoxypyrimidin-4-yl)piperazin-1-yl)ethanone] | < 3 |
| CC(C)COc1cc(N2CCN(C(=O)CCN3Cc4ccccc4C3=O)CC2)ncn1 [Example 61, 2-(3-(4-(6-isobutoxypyrimidin-4-yl)piperazin-1-yl)-3-oxopropyl)isoindolin-1-one] | < 3 |
| COCCn1c(C(=O)N2CCN(c3cc(OCC(C)C)ncn3)CC2)cc2ccccc21 [Example 62, (4-(6-isobutoxypyrimidin-4-yl)piperazin-1-yl)(1-(2-methoxyethyl)-1H-indol-2-yl)methanone] | < 3 |

| SMILES | IC50 [µM] |
| --- | --- |
| COc1cc(C(=O)N2CCN(c3cc(OCC(F)(F)F)ncn3)CC2)nc2ccccc12 [Example 63, (4-methoxyquinolin-2-yl)(4-(6-(2,2,2-trifluoroethoxy)pyrimidin-4-yl)piperazin-1-yl)methanone] | < 3 |
| O=C(c1n[nH]c2ccccc12)N1CCN(c2cc(OCC(F)(F)F)ncn2)CC1 [Example 68, (1H-indazol-3-yl)(4-(6-(2,2,2-trifluoroethoxy)pyrimidin-4-yl)piperazin-1-yl)methanone] | < 3 |
| COc1cccc(C(=O)NCC(=O)N2CCN(c3cc(OCC(C)C)ncn3)CC2)n1 [Example 73, N-(2-(4-(6-isobutoxypyrimidin-4-yl)piperazin-1-yl)-2-oxoethyl)-6-methoxypicolinamide] | < 3 |
| CC(C)COc1cc(N2CCN(C(=O)COc3cccc4ncccc34)CC2)ncn1 [Example 78, 1-(4-(6-isobutoxypyrimidin-4-yl)piperazin-1-yl)-2-(quinolin-5-yloxy)ethanone] | < 3 |
| O=C(c1cnc2ccccc2n1)N1CCN(c2cc(OC3CCC3)ncn2)CC1 [Example 82, (4-(6-cyclobutoxypyrimidin-4-yl)piperazin-1-yl)(quinoxalin-2-yl)methanone] | < 3 |
| O=C(c1ccc2cccc(O)c2n1)N1CCN(c2cc(OC3CCC3)ncn2)CC1 [Example 83, (4-(6-cyclobutoxypyrimidin-4-yl)piperazin-1-yl)(8-hydroxyquinolin-2-yl)methanone] | < 3 |
| O=C(NCC(=O)N1CCN(c2cc(OC3CCC3)ncn2)CC1)c1ccccc1 [Example 85, N-(2-(4-(6-cyclobutoxypyrimidin-4-yl)piperazin-1-yl)-2-oxoethyl)benzamide] | < 3 |
| Cc1cc(C(=O)N2CCN(c3cc(OCC(C)C)ncn3)CC2)nn1-c1ccccc1 [Example 91] | < 3 |
| CC(C)COc1cc(N2CCN(C(=O)c3ccc(-c4cnco4)cc3)CC2)ncn1 [Example 92] | < 3 |
| CC(C)COc1cc(N2CCN(C(=O)c3ccc(-n4cccn4)cc3)CC2)ncn1 [Example 93, (4-(1H-pyrazol-1-yl)phenyl)(4-(6-isobutoxypyrimidin-4-yl)piperazin-1-yl)methanone] | < 3 |
| Cc1ccc(C(=O)N2C[C@@H]3C[C@H]2CN3c2cc(OCC(C)C)ncn2)cc1F [Example 94, (3-fluoro-4-methylphenyl)((1S,4S)-5-(6-isobutoxypyrimidin-4-yl)-2,5-diazabicyclo[2.2.1]heptan-2-yl)methanone] | < 3 |
| CC(C)COc1cc(N2CCN(C(=O)COc3cccc(F)c3)CC2)ncn1 [Example 96, 2-(3-fluorophenoxy)-1-(4-(6-isobutoxypyrimidin-4-yl)piperazin-1-yl)ethanone] | < 3 |
| CC(C)COc1cc(N2CCN(C(=O)COc3ccc(F)c(F)c3)CC2)ncn1 [Example 97, 2-(3,4-difluorophenoxy)-1-(4-(6-isobutoxypyrimidin-4-yl)piperazin-1-yl)ethanone] | < 3 |
| CC(C)COc1cc(N2CCN(C(=O)CN3CCc4ccccc4C3=O)CC2)ncn1 [Example 98, 2-(2-(4-(6-isobutoxypyrimidin-4-yl)piperazin-1-yl)-2-oxoethyl)-3,4-dihydroisoquinolin-1(2H)-one] | < 3 |
| CC(C)COc1cc(N2CCN(C(=O)Cc3cn(C)c4ccccc34)CC2)ncn1 [Example 101, 1-(4-(6-isobutoxypyrimidin-4-yl)piperazin-1-yl)-2-(1-methyl-1H-indol-3-yl)ethanone] | < 3 |
| CC(C)COc1cc(N2CCN(C(=O)COCc3ccccc3)CC2)ncn1 [Example 106, 2-(benzyloxy)-1-(4-(6-isobutoxypyrimidin-4-yl)piperazin-1-yl)ethanone] | < 3 |
| O=C(Cc1noc2ccccc12)N1CCN(c2cc(OCC(F)(F)F)ncn2)CC1 [Example 107, 2-(benzo[d]isoxazol-3-yl)-1-(4-(6-(2,2,2-trifluoroethoxy)pyrimidin-4-yl)piperazin-1-yl)ethanone] | < 3 |
| O=C(Cc1noc2ccccc12)N1CCN(c2cc(OC3CCC3)ncn2)CC1 [Example 111, 2-(benzo[d]isoxazol-3-yl)-1-(4-(6-cyclobutoxypyrimidin-4-yl)piperazin-1-yl)ethanone] | < 3 |
